Experiments:
mutant MGL = target: T1, mutant MGL (Homo sapiens, UniProt Q99685, L169S/L176S); experiment: MGL ThermoFluor Assay-Mutant; settings: read-out: MGL mutant ThermoFluor qKd (using qNMR conc.), compound concentration measured by qNMR
T1 sequence (Q99685 1-303 L169S/L176S): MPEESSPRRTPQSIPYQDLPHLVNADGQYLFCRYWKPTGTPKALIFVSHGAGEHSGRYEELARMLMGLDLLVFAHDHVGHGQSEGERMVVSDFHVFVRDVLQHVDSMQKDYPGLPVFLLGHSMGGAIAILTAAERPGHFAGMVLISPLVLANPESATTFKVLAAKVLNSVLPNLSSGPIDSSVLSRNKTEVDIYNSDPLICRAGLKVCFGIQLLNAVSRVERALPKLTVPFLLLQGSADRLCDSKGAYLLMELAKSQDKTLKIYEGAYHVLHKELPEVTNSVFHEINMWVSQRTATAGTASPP
Experimental: The ThermoFluor (TF) assay is a 384-well plate-based binding assay that measures thermal stability of proteins^1,2. […] TF dye used in all experiments was 1,8-ANS (Invitrogen: A-47). Final TF assay conditions used for MGL studies were 0.07 mg/ml of mutant MGL, 100 μM ANS, 200 mM NaCl, 0.001% Tween-20 in 50 mM PIPES (pH=7.0).
Screening compound plates contained 100% DMSO compound solutions at a single concentration. […] Columns 12 and 24 were used as DMSO reference and contained no compound. […] Following compound dispension, protein and dye solutions were added to achieve the final assay volume of 3 μL.
Bar-coded assay plates were robotically loaded onto a thermostatically controlled PCR-type thermal block and then heated from 40 to 90° C. degrees at a ramp-rate of 1° C./min for all experiments. Fluorescence was measured by continuous illumination with UV light (Hamamatsu LC6), supplied via fiber optics and filtered through a band-pass filter (380-400 nm; >6 OD cutoff). Fluorescence emission of the entire 384-well plate was detected by measuring light intensity using a CCD camera (Sensys, Roper Scientific) filtered to detect 500±25 nm, resulting in simultaneous and independent readings of all 384 wells. […]

[1] = tested on: rat, CFA-induced thermal hypersensitivity; experiment: CFA-Induced Paw Radiant Heat Hypersensitivity; format: in vivo; settings: 30 mg/kg p.o., HPβCD, group mean values, last time point 180 or 300 min
Experimental: Each rat was placed in a test chamber on a warm glass surface and allowed to acclimate for approximately 10 min. A radiant thermal stimulus (beam of light) was then focused through the glass onto the plantar surface of each hind paw in turn. The thermal stimulus was automatically shut off by a photoelectric relay when the paw was moved or when the cut-off time was reached (20 sec for radiant heat at ˜5 amps). An initial (baseline) response latency to the thermal stimulus was recorded for each animal prior to the injection of complete Freund's adjuvant (CFA). 24 h following intraplantar CFA injection, the response latency of the animal to the thermal stimulus was then re-evaluated and compared to the animal's baseline response time. […] Post-compound treatment withdrawal latencies were assessed at fixed time intervals, typically 30, 60, 120, 180, and 300 min.
The percent reversal (% R) of hypersensitivity was calculated in one of two different ways: 1) using group mean values or 2) using individual animal values. […]
For all compounds, the % R of hypersensitivity was calculated using the mean value for groups of animals at each time point according to the following formula: % reversal=[(group treatment response−group CFA response)/(group baseline response−group CFA response)]×100 Results are given for the maximum % reversal observed for each compound at any time point tested. […]

SMILES: Cc1nc(C(=O)N2CCN(C3CN(C(=O)c4ccc(-c5cccc(C(F)(F)F)c5)cc4)C3)CC2)cs1 [Cpd 1217, 1-[(2-Methyl-l,3-thiazol-4-yl)carbonyl]-4-(1-{[3′-(trifluoromethyl)biphenyl-4-yl]carbonyl}azetidin-3-yl)piperazine]
- Kd (mutant MGL): 104 nM

SMILES: O=C(c1ccc(-c2cccc(C(F)(F)F)c2)c(Cl)c1)N1CC(N2CCN(C(=O)c3cscn3)CC2)C1 [Cpd 1102]
- Method 1: peak % reversal [1]: 38%

Source: patent publication US8722658B2, “Azetidinyl diamides as monoacylglycerol lipase inhibitors” (Janssen Pharmaceutica, NV, priority 2009, dated 2014)
